These results are taken from US20240382401A1, “COMPOSITIONS” (JVS Products Limited, priority 2020, published 2024).

The data set has as its system tissue engineered human skin model (EpiDerm™). As to the kind of experiment: In vitro skin irritation test, EpiDerm (EPI-200-SIT), MTT assay. Type of data set: cell-based. As to conditions: 60 minutes exposure, relative to negative control, irritant if below 50%. On the procedure: A 24 tissue insert EpiDerm™ skin irritation kit was purchased from MatTek In Vitro Life Science Laboratories, Slovakia (EPI-200-SIT). On receipt of the kit, the tissues were visually assessed for integrity and conditioned by transferring into sterile 6 well plates, adding 0.9 ml medium and incubating for 60 minutes at 37° C., 5% CO2, 95% RH. After 60 minutes, the tissues were removed, placed in fresh medium and further incubated for 18 hours.
To test for irritancy potential, 30 μl of liquid formulation, plus positive and negative control or 25 mg semisolid (gel/moisturiser) were applied to surface of each test tissue insert. After dosing the inserts were incubated for 35 minutes (37° C., 5% CO2, 95% RH). […]
Once extraction was complete, 200 μl samples from each tissue were added to a 96 well plate in duplicate for the MTT assay of cell viability, and 200 μl isopropanol to 4 wells as blanks. The optical density of each well was read using a spectrophotometric plate reader at 570 nm without using a reference filter.
The mean OD (optical density) from the blank wells was subtracted from the OD of each well. The mean OD from each duplicate was then obtained and the individual relative tissue viability for each tissue treated with a test substance (TS), the positive control (PC) and the negative control (NC) calculated according to the following formulas: […]

Regarding `CCCCCCCCCCCCOS(=O)(=O)[O-].[Na+]` [5% SDS], the “Mean RV % (relative viability)” value was 9.0%.
